Among the test systems are A549; ACHN; HCT-116; K562; KM12; LOX IMVI; M14; MDA-MB-231; NCI-H226; RPMI-8226; RXF 393; SF-295; SK-MEL-2; SK-OV-3; SNB-75; SR; SW-620; T47D; U-251; UACC-257.
Experiment in all cases: growth of human tumour cells (NCI), 48 h

The values that follow come from ChEMBL document CHEMBL1201862, “PubChem BioAssay data set” (2004).

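Cells were grown in 96-well plates and exposed to each compound for 48 hours at five concentrations; endpoints were interpolated linearly between bracketing concentrations, or set to the highest concentration if not reached. Abbreviation: GI50, concentration required for 50% inhibition of growth.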 Activity calls are given as the source filed them. Rule as the data show it: active = GI50 up to about 1.1 µM and inactive = higher.

Regarding `c1ccc2cc(CNCCOCCOCCNCc3ccc4ccccc4c3)ccc2c1`, the GI50 was 1.74 µM (inactive) with A549; 1.79 µM (inactive) with ACHN; 1.58 µM (inactive) with HCT-116; 0.446 µM (active) in the assay on K562; 1.6 µM (inactive) in the assay with KM12; 1.46 µM (inactive) with LOX IMVI. Also, the GI50 in the assay on M14 is 1.95 µM (inactive); in the assay on MDA-MB-231 it was 1.57 µM (inactive); in the assay on NCI-H226 it was 2.09 µM (inactive); in the assay with RPMI-8226, 1.19 µM (inactive); in the assay with RXF 393 it was 1.78 µM (inactive); in the assay on SF-295, 1.64 µM (inactive). Also, the GI50 in the assay on SK-MEL-2 was 1.91 µM (inactive); with SK-OV-3 it was 3.13 µM (inactive); in the assay on SNB-75, 1.95 µM (inactive); in the assay on SR it was 1.26 µM (inactive); in the assay on SW-620, 1.91 µM (inactive); in the assay on T47D it was 2.74 µM (inactive). Further, the results for the GI50 in the assay on U-251 and in the assay with UACC-257 were 1.97 µM (inactive) and 1.49 µM (inactive), respectively.
`CCOC(=O)c1c(SCCN2CCOCC2)n(-c2ccccc2)c(=S)n(-c2ccccc2)c1=O`: the GI50 with A549 was > 100 µM (inactive); with ACHN it was > 100 µM (inactive); with K562, 19 µM (inactive); in the assay on KM12 it was > 100 µM (inactive); in the assay with LOX IMVI, 18.5 µM (inactive); in the assay on M14, 44.8 µM (inactive). For the same compound, the GI50 was 44 µM (inactive) in the assay on MDA-MB-231; 38.5 µM (inactive) in the assay with NCI-H226; 33.7 µM (inactive) in the assay with RPMI-8226; 18.6 µM (inactive) in the assay with RXF 393; 25.6 µM (inactive) in the assay with SF-295; > 100 µM (inactive) with SK-MEL-2. Further, the GI50 was 76.2 µM (inactive) with SNB-75; 18.4 µM (inactive) in the assay with SR; 21.1 µM (inactive) in the assay with SW-620; 31.8 µM (inactive) in the assay on T47D; > 100 µM (inactive) in the assay with U-251; 25.8 µM (inactive) in the assay with UACC-257.
Turning to `Cc1cc(C)cc(Nc2nnc3n2S(=O)(=O)c2cc(C)c(Cl)cc2S3)c1`, the GI50 in the assay with A549 is 5.01 µM (inactive); in the assay with ACHN, 7.66 µM (inactive); in the assay on HCT-116, 3.48 µM (inactive); with K562, 3.01 µM (inactive); with KM12, 8.38 µM (inactive); in the assay with LOX IMVI, 3.44 µM (inactive). Further, the GI50 with M14 was 8.09 µM (inactive); in the assay on MDA-MB-231, 4.73 µM (inactive); in the assay with NCI-H226 it was 3.07 µM (inactive); with RPMI-8226, 2.88 µM (inactive); in the assay with RXF 393 it was 3.03 µM (inactive); in the assay on SF-295, 7.03 µM (inactive). Moreover, the GI50 with SK-MEL-2 is 2.7 µM (inactive); in the assay with SK-OV-3 it was 14.3 µM (inactive); in the assay with SNB-75, 3.87 µM (inactive); in the assay with SR, 2.09 µM (inactive); with SW-620, 3.45 µM (inactive); with T47D, 5.69 µM (inactive). In addition, the GI50 in the assay with U-251 is 3.24 µM (inactive); in the assay with UACC-257 it was 4.35 µM (inactive).
In the case of `O=C(c1ccccc1)c1c(C(F)(F)F)[n+]([O-])c2ccccc2[n+]1[O-]`, the GI50 in the assay on A549 is 0.634 µM (active); in the assay with ACHN, 1.36 µM (inactive); with HCT-116, 0.977 µM (active); in the assay with K562 it was 0.209 µM (active); with KM12, 0.451 µM (active); in the assay with LOX IMVI it was 0.291 µM (active). Further, the GI50 is 2.58 µM (inactive) with M14; 1.42 µM (inactive) in the assay on MDA-MB-231; 1.51 µM (inactive) in the assay with NCI-H226; 0.237 µM (active) with RPMI-8226; 1.46 µM (inactive) with RXF 393; 1.36 µM (inactive) in the assay on SF-295. For the same compound, the GI50 in the assay with SK-MEL-2 was 1.5 µM (inactive); with SNB-75 it was 1.26 µM (inactive); in the assay on SR it was 0.0738 µM (active); in the assay on SW-620, 1.48 µM (inactive); in the assay on T47D, 0.396 µM (active); in the assay with U-251, 1.16 µM (inactive). The GI50 in the assay with UACC-257 is 1.84 µM (inactive).
Consider `CCCC#CC(O)(C(=O)OC1CCN(C)CC1)C1CCCCC1` (centres undefined), for which the GI50 with A549, in the assay with ACHN, in the assay with HCT-116, in the assay with K562, in the assay on KM12 and in the assay with LOX IMVI was > 100 µM (inactive) in each case. Further, the GI50 was 58.6 µM (inactive) with M14; > 100 µM (inactive) in the assay on MDA-MB-231; 94.4 µM (inactive) in the assay with NCI-H226; > 100 µM (inactive) with RPMI-8226; > 100 µM (inactive) in the assay on RXF 393; > 100 µM (inactive) with SF-295. The GI50 in the assay on SK-MEL-2 is > 100 µM (inactive); in the assay with SK-OV-3 it was > 100 µM (inactive); in the assay on SNB-75, 57 µM (inactive); with SR, > 100 µM (inactive); in the assay on SW-620, > 100 µM (inactive); with T47D, > 100 µM (inactive). Moreover, the GI50 with U-251 is > 100 µM (inactive); with UACC-257, 46.6 µM (inactive).
With `Cn1c([N+](=O)[O-])cnc1CN1CCN(CCO)CC1`, the GI50 in the assay with A549, in the assay on ACHN, with HCT-116, with K562, with KM12 and in the assay on LOX IMVI was > 100 µM (inactive) in each case. Moreover, the GI50 with M14, in the assay on MDA-MB-231, in the assay on NCI-H226, with RPMI-8226, with RXF 393 and with SF-295 was > 100 µM (inactive) throughout. Moreover, the GI50 with SK-MEL-2, with SK-OV-3, in the assay on SNB-75, in the assay on SR, in the assay on SW-620 and in the assay on T47D was > 100 µM (inactive) throughout. Also, the GI50 in the assay on U-251 and with UACC-257 was > 100 µM (inactive) each time.
`O=C(Nc1nnc(-c2ccc(Cl)cc2)o1)C(SC(=S)N1CCOCC1)c1ccccc1` (centres undefined): the GI50 in the assay with A549 is 13.8 µM (inactive); with ACHN, 12.4 µM (inactive); in the assay on HCT-116, 10.2 µM (inactive); with K562, 11.6 µM (inactive); in the assay with KM12, 13.7 µM (inactive); with LOX IMVI it was 7.94 µM (inactive). The GI50 in the assay with M14 was 16.1 µM (inactive); in the assay with MDA-MB-231 it was 30.3 µM (inactive); in the assay with NCI-H226 it was 21.9 µM (inactive); in the assay with RPMI-8226 it was 9.48 µM (inactive); in the assay with RXF 393, 26.9 µM (inactive); with SF-295 it was 13.1 µM (inactive). Besides, the GI50 was 14.7 µM (inactive) with SK-MEL-2; 28.1 µM (inactive) in the assay on SK-OV-3; 26.4 µM (inactive) with SNB-75; 8.09 µM (inactive) in the assay with SR; 26 µM (inactive) in the assay with SW-620; 21.7 µM (inactive) with T47D. The GI50 with U-251 was 12.5 µM (inactive); with UACC-257 it was 33 µM (inactive).
For `CCC1=CC(OCc2ccccc2)C(CCN(Cc2ccccc2)C(=O)OCc2ccccc2)C1` (centres undefined), the GI50 was 15.5 µM (inactive) with A549; 15.3 µM (inactive) in the assay on ACHN; 11 µM (inactive) with K562; 15.6 µM (inactive) in the assay with KM12; 14.9 µM (inactive) with LOX IMVI; 13.7 µM (inactive) in the assay on M14. Moreover, the GI50 with MDA-MB-231 was 18.5 µM (inactive); with NCI-H226 it was 15.7 µM (inactive); in the assay on RPMI-8226 it was 8.59 µM (inactive); in the assay on RXF 393, 3.5 µM (inactive); in the assay with SF-295 it was 14.8 µM (inactive); with SK-MEL-2, 20.2 µM (inactive). Besides, the GI50 in the assay on SK-OV-3 was 20 µM (inactive); in the assay on SNB-75, 10.3 µM (inactive); in the assay on SR it was 17.3 µM (inactive); with SW-620, 18.4 µM (inactive); in the assay on T47D it was 6.01 µM (inactive); in the assay on U-251, 19.8 µM (inactive). Besides, the GI50 with UACC-257 is 13.9 µM (inactive).
As for `COc1ccc(Oc2cccc(C3C4C(=O)N(c5ccc(C)c(Cl)c5)C(=O)C4ON3C(C(N)=O)c3ccccc3)c2)cc1` (centres undefined), the GI50 in the assay with A549 was 20.9 µM (inactive); with ACHN it was 23.5 µM (inactive); with HCT-116, 14 µM (inactive); with K562 it was 16.6 µM (inactive); in the assay on KM12 it was 18 µM (inactive); in the assay on LOX IMVI it was 13.7 µM (inactive). Further, the GI50 with M14 is 13.1 µM (inactive); in the assay with MDA-MB-231, 34 µM (inactive); in the assay on NCI-H226, 15.6 µM (inactive); with RXF 393, 7.6 µM (inactive); in the assay with SF-295, 35.9 µM (inactive); with SK-MEL-2, 11.2 µM (inactive). For the same compound, the GI50 is > 50 µM (inactive) in the assay on SK-OV-3; 6.08 µM (inactive) in the assay on SNB-75; 9.98 µM (inactive) in the assay on SR; 20.9 µM (inactive) in the assay on SW-620; 9.23 µM (inactive) in the assay on T47D; 16.6 µM (inactive) with U-251. Further, the GI50 with UACC-257 was 10.7 µM (inactive).
Turning to `C#CCOC(=O)C(N)CCSC` (centres undefined), the GI50 with A549, in the assay on ACHN, with HCT-116, in the assay on KM12, in the assay on LOX IMVI and in the assay with M14 was > 100 µM (inactive) throughout. Besides, the GI50 in the assay on MDA-MB-231, with NCI-H226, with RPMI-8226, in the assay on RXF 393, in the assay on SF-295 and in the assay with SK-MEL-2 was > 100 µM (inactive) each time. The GI50 with SK-OV-3, in the assay with SNB-75, with SR, in the assay with SW-620, in the assay with T47D and in the assay on U-251 was > 100 µM (inactive) throughout. Besides, in the assay on UACC-257, the GI50 is > 100 µM (inactive).
